Reference: publication PMC12187842, “A novel molecule targeting neutrophil-mediated B-1a cell trogocytosis attenuates sepsis-induced acute lung injury” (Frontiers in Immunology, 2025)

Tested on: B-1a cells
Experiment: B-1a cell numbers in pleural and peritoneal cavities of CLP mice by flow cytometry
Type: in vivo, mouse
Description: Mice were anesthetized with 2% isoflurane in oxygen, and sepsis was induced via cecal ligation and puncture (CLP) ([26]). A 1-cm midline abdominal incision was made to expose the cecum, which was ligated 1-cm proximal to its end using a 4-0 silk suture. The cecum then was perforated with a single through-and-through puncture using a 22-gauge needle, positioned midway between the ligation and the tip of the cecum. A small amount of fecal material was gently extruded from the perforation sites to confirm the patency of the punctures, and the cecum was subsequently returned to the peritoneal cavity. Following abdominal closure, resuscitation was provided via subcutaneous (s.c.) injection of 500 µL normal saline. Postoperative analgesia was administered with a single dose of 0.1 mg/kg buprenorphine. […]
B-1a cell and neutrophil populations were analyzed by flow cytometry ([9], [11], [28]). […] After that, B-1a cells (CD45^+CD19^+B220^lo/-CD5^+CD23^-) ([6], [28]), and neutrophils (CD45^+Ly6G^+) were detected by flow cytometry. Fc block (Cat. No. 156604, BioLegend) was used to prevent nonspecific antibody binding and the cell viability was determined using a Zombie Aqua Fixable Viability Kit (BioLegend). […]

## 126-ELKNRTVSWFS-136 [Compound C11]
C11 10 mg/kg i.p. once immediately after CLP, 20 h after surgery, flow cytometry, n = 5-6/group, p < 0.05 vs. C11 (-)
  B-1a cell numbers in the pleural and peritoneal cavities: effectively preserved
discussion, blocking of Siglec-G/CD47 interaction by C11 in CLP mice
  restoration of B-1a cell numbers in sepsis: did not fully restore B-1a cell numbers
